Assays:
ECHCG [1] = test: Herbicidal pre-emergence action - Part I; assay type: in vivo, Echinochloa crus-galli; settings: visual grading after ca. 3 weeks vs untreated controls
Procedure, shortened: (§1)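 Visual % injury, ~3 weeks post-application, relative to untreated pots. Treatment: aqueous WP/EC preparation with 0.5% additive sprayed pre-emergence on soil at 600 l/ha, application rate 1280 g/ha or less.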

POAAN = test: Herbicidal pre-emergence action - Part I; assay type: in vivo, Poa annua; settings: visual grading after ca. 3 weeks vs untreated controls
Procedure, shortened: as §1

MATIN = test: Herbicidal post-emergence action - Part I; assay type: in vivo, Matricaria inodora; settings: one-leaf stage, rated visually after about 3 weeks vs untreated controls
Procedure, shortened: (§2)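 Activity was scored visually as % damage (100% = dead, 0% = like untreated) about 3 weeks after treatment. Plants at the one-leaf stage, 2-3 weeks old, were sprayed with WP/EC formulations plus 0.5% additive (600 L/ha water, up to 1280 g/ha). Plants were grown in sandy loam in a greenhouse.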

KCHSC = test: Herbicidal post-emergence action - Part I; assay type: in vivo, Kochia scoparia; settings: one-leaf stage, rated visually after about 3 weeks vs untreated controls
Procedure, shortened: as §2

ALOMY = test: Herbicidal pre-emergence action - Part II; assay type: in vivo, Alopecurus myosuroides; settings: visual grading after ca. 3 weeks vs untreated controls
Excerpt: (§3) Seeds of mono- and dicotyledonous weed plants and crop plants were sown, in plastic or organic planting pots, in sandy loam and covered with soil. The compounds according to the invention, formulated in the form of wettable powders (WP) or as emulsifiable concentrates (EC), were applied to the surface of the covering soil as aqueous suspension or emulsion, with the addition of 0.5% of an additive, at an application rate of 600 1 of water/ha (converted). Following treatment, the pots were placed in a greenhouse and kept under optimum growth conditions for the test plants. The visual grading of the damage to the test plants was carried out after ca. 3 weeks in comparison to untreated controls (herbicidal effect in percent (%): 100% effect = plants have died off, 0% effect = as control plants). Tables C1 to C12 below show the effects of selected compounds of the general formula (I) according to table 1 on various harmful plants and an application rate corresponding to 320 g/ha or below obtained by the experimental procedure mentioned above. Table C1: pre-emergence activity at 320g/ha against ABUTH in %

ECHCG [2] = test: Herbicidal pre-emergence action - Part II; assay type: in vivo, Echinochloa crus-galli
Excerpt: as §3

SETVI = test: Herbicidal pre-emergence action - Part II; assay type: in vivo, Setaria viridis
Excerpt: as §3

ZEAMX = test: Pre-emergence effects on crop plants; assay type: in vivo, Zea mays; settings: crop plant
Excerpt: (§4) Seeds of mono- and dicotyledonous weed plants and crop plants were sown, in plastic or organic planting pots, in sandy loam and covered with soil. The compounds according to the invention, formulated in the form of wettable powders (WP) or as emulsifiable concentrates (EC), were applied to the surface of the covering soil as aqueous suspension or emulsion, with the addition of 0.5% of an additive, at an application rate of 600 1 of water/ha (converted). Following treatment, the pots were placed in a greenhouse and kept under optimum growth conditions for the test plants. The visual grading of the damage to the test plants was carried out after ca. 3 weeks in comparison to untreated controls (herbicidal effect in percent (%): 100% effect = plants have died off, 0% effect = as control plants). Tables D1 to D5 below show the effects of various compounds of the general formula (I) according to Table 1 on various crop plants and an application rate corresponding to 320 g/ha or below obtained by the experimental procedure mentioned above in Biological Examples, Section C. Table […]: pre-emergence activity at 320g/ha against ZEAMX in %

TRZAS = test: Pre-emergence effects on crop plants; assay type: in vivo, Triticum aestivum; settings: crop plant
Excerpt: as §4

GLXMA = test: Pre-emergence effects on crop plants; assay type: in vivo, Glycine max; settings: crop plant
Excerpt: as §4

BRSNW = test: Post-emergence effects on crop plants; assay type: in vivo, Brassica napus; settings: crop plant
Excerpt: Seeds of mono- and dicotyledonous weed plants and crop plants were sown, in plastic or organic planting pots, in sandy loam, covered with soil and grown in a greenhouse under controlled growth conditions. 2 to 3 weeks after sowing, the test plants were sprayed in the single-leaf stage. The compounds according to the invention, formulated in form of wettable powders (WP) or as emulsifiable concentrates (EC), were sprayed onto the green plant parts as aqueous suspension or emulsion, with the addition of 0.5% of an additive, at an application rate of 600 1 of water/ha (converted). The test plants were placed in the greenhouse for ca. 3 weeks under optimum growth conditions, and then the effect of the preparations was assessed visually in comparison with untreated controls (herbicidal effect in percent (%): 100% effect = plants have died off, 0% effect = as control plants). Tables F1 to F5 below show the effects of selected compounds of the general formula (I) according to table 1 on various crop plants and an application rate corresponding to 320 g/ha or below obtained by the experimental procedure mentioned above. Table […]: post-emergence activity at 5g/ha against ZEAMX in %

[3] = 80 g/ha, table titled F4c (BRSNW)

SMILES	pre-emergence activity at 320g/ha against ECHCG in % (ECHCG [1]) [%]	pre-emergence activity at 1280g/ha against ECHCG in % (ECHCG [1]) [%]	pre-emergence activity at 320g/ha and against POAAN in % (POAAN) [%]	pre-emergence activity at 1280g/ha and against POAAN in % (POAAN) [%]	post-emergence activity at 320g/ha against MATIN in % (MATIN) [%]	post-emergence activity at 1280g/ha against MATIN in % (MATIN) [%]	post-emergence activity at 320g/ha against KCHSC in % (KCHSC) [%]	post-emergence activity at 1280g/ha against KCHSC in % (KCHSC) [%]	pre-emergence activity at 320g/ha against ALOMY in % (ALOMY) [%]	pre-emergence activity against ECHCG (ECHCG [2]; 320 g/ha, Table C6a) [%]	pre-emergence activity against SETVI (SETVI; 320 g/ha, Table C10a) [%]	pre-emergence activity against ZEAMX (ZEAMX; 80 g/ha, Table D1b) [%]	pre-emergence activity against ZEAMX (ZEAMX; 320 g/ha, Table D1a) [%]	pre-emergence activity against TRZAS (TRZAS; 80 g/ha, Table D2b) [%]	pre-emergence activity against GLXMA (GLXMA; 80 g/ha, Table D4b) [%]	post-emergence activity against BRSNW (BRSNW; [3]) [%]	also measured
Cc1ccsc1C1=NOC2(CCCN(Cc3c(F)cccc3F)C2=O)C1 (racemic) [Compound I-2]	100	100	100	100	90	90	90	90	90	100	100	0	0	0	0	10	pre-emergence activity at 80g/ha and against POAAN in % (POAAN; 80 g/ha): 100%; pre-emergence activity against ECHCG (ECHCG [2]; 80 g/ha, Table C6b): 90%; pre-emergence activity against SETVI (SETVI; 80 g/ha, Table C10b): 100%
Cc1ccsc1C1=NOC2(CCN(Cc3c(F)cccc3F)C2=O)C1 (racemic) [Compound I-16, 7-(2,6-Difluorobenzyl)-3-(3-methyl-2-thienyl)-1-oxa-2,7-diazaspiro[4.4]non-2-en-6-one]	100	100	100	100		90		90	80	90	90	10	20	10	10	0	pre-emergence activity against TRZAS (TRZAS; Table D2a, title: 320g/ha, application rate: 80 g/ha): 10%; pre-emergence activity against GLXMA (GLXMA; Table D4a, title: 320g/ha, application rate: 80 g/ha): 20%; post-emergence activity against BRSNW (BRSNW; table titled F4d (BRSNW), title: 320 g/ha, application rate: 80 g/ha): 0%
O=C1N(Cc2ccccc2F)CCC12CC(c1c(F)cccc1F)=NO2 (racemic) [Compound I-10]		100	90	100	90	90	90	90	80	90	90	0	0	0	10	0	

— patent EP4509511A1, “SUBSTITUTED SPIRO-ISOXAZOLINYL LACTAMS, SALTS THEREOF AND THEIR USE AS HERBICIDALLY ACTIVE SUBSTANCES” (Bayer Aktiengesellschaft, priority 2023, dated 2025)
